# Experimental data published in US8445712B2, “Phospholipid derivative and pH-responsive liposomes” (NOF Corporation, priority 2009, dated 2013).
# Test: Measurement test of pH-sensitiveness of liposome (release of enclosed pyranine/DPX at a given pH)
# Assay type: physicochemical
# Conditions: Example 15 (Table 2) compared with Example 19 (Table 3); 11 mol % derivative in EYPC liposome
# Protocol: Using the liposomes prepared in Examples 5-13 and Comparative Example 1, pH-sensitiveness measurement tests were performed.
# To the liposome solution obtained in Example 5 was added phosphate buffered saline (hereinafter to be indicated as “PBS”) to adjust the lipid concentration of the liposome to 1.6 mmol/l. The PBS (2469 μl) adjusted to a given pH with 1N hydrochloric acid was placed in a quartz cell, a liposome dispersion (31 μl) was added thereto at 37° C. to adjust the lipid concentration to 20 μmol/l. After incubation at 37° C. for 15 min, fluorescence intensity (F15min) was measured. In addition, 10% aqueous Triton X-100 (manufactured by Sigma-Aldrich Japan Co. Ltd.) solution (25 μl) was added thereto, and the mixture was stirred, and the fluorescence intensity (Fmax) was measured.
# The release (%) was calculated by the following formula.
# [formula] F15min: fluorescence intensity at 15 min after liposome addition F0: fluorescence intensity at t=0 by measurement with PBS at pH 7.4 Fmax: fluorescence intensity after addition of Triton
substance,measurement,value
"Octaglycerolglutaryl Distearylphosphatidylethanolamine 1,2-Cyclohexanedicarboxylic Acid Derivative [DSPE-CHexPG8G]",pH sensitive property (comparison),stronger pH sensitive property
